Results: ChEMBL document CHEMBL3885881, “DrugMatrix”

Species on record: Rattus norvegicus
Assay: DrugMatrix - Regimen: Daily Repeat
Assay type: toxicity, organism-based, Sprague-Dawley
Parameters: regimen Daily Repeat, gender Male, age 6-8 weeks
Conditions: in vivo, po, route oral GAVAGE, vehicle 100 % WATER; for ABSOLUTE BASOPHIL / ABSOLUTE EOSINOPHIL / ABSOLUTE LYMPHOCYTE / ABSOLUTE MONOCYTE / ABSOLUTE SEGMENTED NEUTROPHIL / BASOPHIL / EOSINOPHIL / ERYTHROCYTE COUNT / HEMATOCRIT / HEMOGLOBIN / LEUKOCYTE COUNT / LYMPHOCYTE / MEAN CORPUSCULAR HEMOGLOBIN / MEAN CORPUSCULAR HEMOGLOBIN CONCENTRATION / MEAN CORPUSCULAR VOLUME / MONOCYTE / NEUTROPHIL / NUCLEATED RED BLOOD CELLS / PLATELET COUNT: tissue Blood; for ALANINE AMINOTRANSFERASE / ALBUMIN / ALKALINE PHOSPHATASE / ASPARTATE AMINOTRANSFERASE / BLOOD UREA NITROGEN / CARBON DIOXIDE / CHLORIDE / CHOLESTEROL / CREATINE PHOSPHOKINASE / CREATININE / GLUCOSE / LACTATE DEHYDROGENASE / LIPASE / PHOSPHORUS / POTASSIUM / SODIUM / TOTAL BILIRUBIN / TOTAL PROTEIN / URIC ACID: tissue Plasma
[1] = 0 mg/kg, 72 h, dose level Control, time 3 day
[2] = 0 mg/kg, 120 h, dose level Control, time 5 day
[3] = 30 mg/kg, 72 h, dose level Low, time 3 day

CC(C)NCC(O)c1ccc(NS(C)(=O)=O)cc1 (centres undefined) [SOTALOL]
ABSOLUTE BASOPHIL [1]: 0 CELLS/uL
ABSOLUTE EOSINOPHIL [1]: 102 CELLS/uL
ABSOLUTE LYMPHOCYTE [1]: 12758 CELLS/uL
ABSOLUTE MONOCYTE [1]: 197.17 CELLS/uL
ABSOLUTE SEGMENTED NEUTROPHIL [1]: 1259.5 CELLS/uL
BASOPHIL [1]: 0%
EOSINOPHIL [1]: 0.83%
ERYTHROCYTE COUNT [1]: 5.3 x10E6/uL
HEMATOCRIT [1]: 33.47%
HEMOGLOBIN [1]: 13.12 G/DL
LEUKOCYTE COUNT [1]: 14.32 x10E3/uL
LYMPHOCYTE [1]: 89.33%
MEAN CORPUSCULAR HEMOGLOBIN [1]: 24.8 pg
MEAN CORPUSCULAR HEMOGLOBIN CONCENTRATION [1]: 39.18 G/DL
MEAN CORPUSCULAR VOLUME [1]: 63.25 fL
MONOCYTE [1]: 1.33%
NEUTROPHIL [1]: 8.5%
NUCLEATED RED BLOOD CELLS [1]: 0 /100WBC
PLATELET COUNT [1]: 1313.17 x10E3/uL
ALANINE AMINOTRANSFERASE [1]: 52.67 u/L
ALBUMIN [1]: 4.05 G/DL
ALKALINE PHOSPHATASE [1]: 372 u/L
ASPARTATE AMINOTRANSFERASE [1]: 82.83 u/L
BLOOD UREA NITROGEN [1]: 15 mg/dL
CARBON DIOXIDE [1]: 25.67 mmol/L
CHLORIDE [1]: 102.17 MEQ/L
CHOLESTEROL [1]: 68.83 mg/dL
CREATINE PHOSPHOKINASE [1]: 285 u/L
CREATININE [1]: 0.18 mg/dL
GLUCOSE [1]: 149.17 mg/dL
LACTATE DEHYDROGENASE [1]: 263.83 u/L
LIPASE [1]: 10.17 u/L
PHOSPHORUS [1]: 12.58 mg/dL
POTASSIUM [1]: 6.58 MEQ/L
SODIUM [1]: 144.22 MEQ/L
TOTAL BILIRUBIN [1]: 0.22 mg/dL
TOTAL PROTEIN [1]: 5.83 G/DL
URIC ACID [1]: 1.58 mg/dL
ABSOLUTE BASOPHIL [2]: 0 CELLS/uL
ABSOLUTE EOSINOPHIL [2]: 24 CELLS/uL
ABSOLUTE LYMPHOCYTE [2]: 11134.17 CELLS/uL
ABSOLUTE MONOCYTE [2]: 56.33 CELLS/uL
ABSOLUTE SEGMENTED NEUTROPHIL [2]: 1235.5 CELLS/uL
BASOPHIL [2]: 0%
EOSINOPHIL [2]: 0.17%
ERYTHROCYTE COUNT [2]: 5.68 x10E6/uL
HEMATOCRIT [2]: 35.72%
HEMOGLOBIN [2]: 13.93 G/DL
LEUKOCYTE COUNT [2]: 12.45 x10E3/uL
LYMPHOCYTE [2]: 89.5%
MEAN CORPUSCULAR HEMOGLOBIN [2]: 24.63 pg
MEAN CORPUSCULAR HEMOGLOBIN CONCENTRATION [2]: 39.13 G/DL
MEAN CORPUSCULAR VOLUME [2]: 62.97 fL
MONOCYTE [2]: 0.5%
NEUTROPHIL [2]: 9.83%
NUCLEATED RED BLOOD CELLS [2]: 0 /100WBC
PLATELET COUNT [2]: 1204 x10E3/uL
ALANINE AMINOTRANSFERASE [2]: 59.5 u/L
ALBUMIN [2]: 4.38 G/DL
ALKALINE PHOSPHATASE [2]: 415.67 u/L
ASPARTATE AMINOTRANSFERASE [2]: 91.33 u/L
BLOOD UREA NITROGEN [2]: 17 mg/dL
CARBON DIOXIDE [2]: 26.33 mmol/L
CHLORIDE [2]: 104.17 MEQ/L
CHOLESTEROL [2]: 77 mg/dL
CREATINE PHOSPHOKINASE [2]: 249.67 u/L
CREATININE [2]: 0.21 mg/dL
GLUCOSE [2]: 148.33 mg/dL
LACTATE DEHYDROGENASE [2]: 168.5 u/L
LIPASE [2]: 10.17 u/L
PHOSPHORUS [2]: 12.92 mg/dL
POTASSIUM [2]: 7.09 MEQ/L
SODIUM [2]: 148.37 MEQ/L
TOTAL BILIRUBIN [2]: 0.23 mg/dL
TOTAL PROTEIN [2]: 6.3 G/DL
URIC ACID [2]: 1.77 mg/dL
ABSOLUTE BASOPHIL [3]: 0 CELLS/uL
ABSOLUTE EOSINOPHIL [3]: 90.67 CELLS/uL
ABSOLUTE LYMPHOCYTE [3]: 14675.33 CELLS/uL
ABSOLUTE MONOCYTE [3]: 254 CELLS/uL
ABSOLUTE SEGMENTED NEUTROPHIL [3]: 1113.33 CELLS/uL
BASOPHIL [3]: 0%
EOSINOPHIL [3]: 0.67%
ERYTHROCYTE COUNT [3]: 5.44 x10E6/uL
HEMATOCRIT [3]: 34.57%
HEMOGLOBIN [3]: 13.43 G/DL
LEUKOCYTE COUNT [3]: 16.13 x10E3/uL
LYMPHOCYTE [3]: 91%
MEAN CORPUSCULAR HEMOGLOBIN [3]: 24.7 pg
MEAN CORPUSCULAR HEMOGLOBIN CONCENTRATION [3]: 38.93 G/DL
MEAN CORPUSCULAR VOLUME [3]: 63.47 fL
MONOCYTE [3]: 1.67%
NEUTROPHIL [3]: 6.67%
NUCLEATED RED BLOOD CELLS [3]: 0.67 /100WBC
PLATELET COUNT [3]: 1241 x10E3/uL
ALANINE AMINOTRANSFERASE [3]: 52.67 u/L
ALBUMIN [3]: 4.13 G/DL
ALKALINE PHOSPHATASE [3]: 380.33 u/L
ASPARTATE AMINOTRANSFERASE [3]: 95.67 u/L
BLOOD UREA NITROGEN [3]: 15 mg/dL
CARBON DIOXIDE [3]: 25.67 mmol/L
CHLORIDE [3]: 102 MEQ/L
CHOLESTEROL [3]: 74 mg/dL
CREATINE PHOSPHOKINASE [3]: 490.33 u/L
CREATININE [3]: 0.16 mg/dL
GLUCOSE [3]: 152.33 mg/dL
LACTATE DEHYDROGENASE [3]: 497 u/L
LIPASE [3]: 10.33 u/L
PHOSPHORUS [3]: 13.97 mg/dL
POTASSIUM [3]: 6.87 MEQ/L
SODIUM [3]: 144.53 MEQ/L
TOTAL BILIRUBIN [3]: 0.23 mg/dL
TOTAL PROTEIN [3]: 5.8 G/DL
URIC ACID [3]: 2.13 mg/dL
